The record followed here is patent US20190374590A1, “USE OF CORDYCEPS MILITARIS EXTRACT FOR TREATMENT OF RENAL DISEASE” (Nan Pao Resins Chemical Co., Ltd., priority 2018, published 2019).

For assay [1], the system named is nephrin protein level in AB8/13 human podocytes. Nature of the assay: Western blotting of nephrin protein level in differentiated AB8/13 human podocytes. It is filed as cell-based. The conditions noted are these: FIG. 1; substance alone, compared to dimethyl sulfoxide; 6 days incubation. As to the method:
(§1) Firstly, AB8/13 human podocytes were incubated in a 33[…] incubator containing 5% carbon dioxide until they grew to a confluence of 80%. The cells were transferred to a 37.5[…] incubator containing 5% carbon dioxide to be incubated for 14 days so that the cells were differentiated. After which, the differentiated cells were incubated with culture medium containing various substances for 6 days. Finally, total protein of the differentiated cells treated with various substances was extracted for Western blotting assay.
(§2) As stated in Diabetes, 2011 Jun; 60(6): 1779-1788, transforming growth factor-β1 (TGF-β1) is greatly expressed in the renal tissue of a diabetic nephropathy patient. This paper further has reported that transforming growth factor-β1 can dedifferentiate differentiated podocytes and induce the disappearance of pseudopods. As stated in Cell Tissue Res. 2012 Jan; 347(1): 141-54, transforming growth factor-β1 participates in renal fibrosis, renal parenchyma degeneration and loss of function associated with chronic kidney disease. For the above reasons, podocytes treated with transforming growth factor-β1 can be used as a cell culture model for renal disease.
A general note: Immunoblotting shows a protein as a band on a membrane.

In assay [2] the test system is a-smooth muscle actin protein level in AB8/13 human podocytes. Nature of the assay: Western blotting of α-smooth muscle actin protein level in differentiated AB8/13 human podocytes. It counts as cell-based. The conditions noted are these: FIG. 2; substance alone (without TGF-β1), compared to dimethyl sulfoxide; 6 days incubation. As to the method:
as §1, §2

For transforming growth factor-β1, the nephrin protein level result in assay [1] is recorded as “downregulate”. In addition, in assay [2], the “a-smooth muscle actin protein level” value is given as “upregulate”.
